Experimental data from PubChem BioAssay (NCI).
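Where inhibition never reached the appropriate level, the endpoint shown equals the highest concentration tested. Otherwise, values were interpolated linearly from a five-concentration, 48-hour dose response in 96-well plates. The concentration for 50% growth inhibition is given as GI50. TGI denotes the concentration required for complete inhibition of growth.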

How the values were obtained:
Assay in all cases: inhibition of tumour cell growth, NCI panel, 48 h
[1] = test system: PC-3 prostate
[2] = test system: MCF7 breast
[3] = test system: OVCAR-3 ovarian
[4] = test system: SK-MEL-2 melanoma
[5] = test system: TK-10 renal
[6] = test system: UACC-62 melanoma
[7] = test system: 786-0 renal
[8] = test system: HT29 colon
[9] = test system: RXF 393 renal
[10] = test system: A549 NSCLC
[11] = test system: SF-268 CNS
[12] = test system: HCT-15 colon
[13] = test system: K-562 leukemia
[14] = test system: NCI-H460 lung
[15] = test system: BT-549 breast
[16] = test system: SF-539 CNS
[17] = test system: KM12 colon
[18] = test system: COLO 205 colon
[19] = test system: SW-620 colon
[20] = test system: CCRF-CEM leukemia
[21] = test system: SK-MEL-5 melanoma
[22] = test system: SF-295 CNS
[23] = test system: UACC-257 melanoma
[24] = test system: T-47D breast
[25] = test system: SN12C renal
[26] = test system: RPMI-8226 leukemia
[27] = test system: MOLT-4 leukemia
[28] = test system: SNB-75 CNS
[29] = test system: OVCAR-4 ovarian
[30] = test system: LOX IMVI melanoma
[31] = test system: MDA-MB-231 breast
[32] = test system: M14 melanoma
[33] = test system: UO-31 renal
[34] = test system: HCT-116 colon
[35] = test system: NCI-H226 lung
[36] = test system: SK-OV-3 ovarian
[37] = test system: IGROV1 ovarian
[38] = test system: SNB-19 CNS
[39] = test system: SR leukemia
[40] = test system: MALME-3M melanoma
[41] = test system: HL-60(TB) leukemia
[42] = test system: HCC-2998 colon
[43] = test system: U251 CNS
[44] = test system: HOP-62 NSCLC
[45] = test system: SK-MEL-28 melanoma
[46] = test system: EKVX NSCLC
[47] = test system: NCI-H522 lung
[48] = test system: MDA-MB-435
[49] = test system: OVCAR-5 ovarian
[50] = test system: HS 578T breast
[51] = test system: HOP-92 NSCLC
[52] = test system: OVCAR-8 ovarian
[53] = test system: ACHN renal
[54] = test system: A498 renal

## Cc1cc(N(CCNc2ccnc3cc(Cl)ccc23)Cc2cccs2)nc(Cl)n1
[1]
  GI50: 1.69 µM
  TGI: 3.94 µM
[2]
  GI50: 1.53 µM
  TGI: 3.13 µM
[3]
  GI50: 1.43 µM
  TGI: 2.83 µM
[4]
  GI50: 1.84 µM
  TGI: 3.54 µM
[5]
  GI50: 1.62 µM
  TGI: 2.99 µM
[6]
  GI50: 1.69 µM
  TGI: 3.19 µM
[7]
  GI50: 0.429 µM
  TGI: 1.63 µM
[8]
  GI50: 1.45 µM
  TGI: 3.1 µM
[9]
  GI50: 1.45 µM
  TGI: 2.92 µM
[10]
  GI50: 1.43 µM
  TGI: 4.5 µM
[11]
  GI50: 1.83 µM
  TGI: 4.04 µM
[12]
  GI50: 1.49 µM
  TGI: 2.99 µM
[13]
  GI50: 1.02 µM
  TGI: 3.47 µM
[14]
  GI50: 1.13 µM
  TGI: 2.58 µM
[15]
  GI50: 1.87 µM
  TGI: 3.94 µM
[16]
  GI50: 1.83 µM
  TGI: 3.29 µM
[17]
  GI50: 1.69 µM
  TGI: 3.29 µM
[18]
  GI50: 1.72 µM
  TGI: 3.54 µM
[19]
  GI50: 1.4 µM
  TGI: 3 µM
[20]
  GI50: 2.07 µM
  TGI: 5.41 µM
[21]
  GI50: 1.74 µM
  TGI: 3.17 µM
[22]
  GI50: 1.32 µM
  TGI: 2.77 µM
[23]
  GI50: 1.84 µM
  TGI: 3.56 µM
[24]
  GI50: 1.12 µM
  TGI: 2.88 µM
[25]
  GI50: 1.58 µM
  TGI: 3.19 µM
[26]
  GI50: 1.97 µM
  TGI: 4.55 µM
[27]
  GI50: 2.48 µM
  TGI: 5.57 µM
[28]
  GI50: 1.5 µM
  TGI: 2.9 µM
[29]
  GI50: 1.39 µM
  TGI: 2.94 µM
[30]
  GI50: 1.47 µM
  TGI: 2.89 µM
[31]
  GI50: 1.49 µM
  TGI: 3.06 µM
[32]
  GI50: 1.54 µM
  TGI: 3.19 µM
[33]
  GI50: 1.3 µM
  TGI: 2.6 µM
[34]
  GI50: 0.526 µM
  TGI: 2 µM
[35]
  GI50: 1.83 µM
  TGI: 3.83 µM
[36]
  GI50: 1.8 µM
  TGI: 3.24 µM
[37]
  GI50: 1.64 µM
  TGI: 3.28 µM
[38]
  GI50: 2.11 µM
  TGI: 5.62 µM
[39]
  GI50: 1.02 µM
  TGI: 4.02 µM
[40]
  GI50: 1.62 µM
  TGI: 3.17 µM
[41]
  GI50: 1.99 µM
  TGI: 3.84 µM
[42]
  GI50: 1.74 µM
  TGI: 3.4 µM
[43]
  GI50: 0.893 µM
  TGI: 2.28 µM
[44]
  GI50: 1.65 µM
  TGI: 3.65 µM
[45]
  GI50: 1.61 µM
  TGI: 3.18 µM
[46]
  GI50: 2.08 µM
  TGI: 7.38 µM
[47]
  GI50: 1.44 µM
  TGI: 3.55 µM
[48]
  GI50: 1.56 µM
  TGI: 3.05 µM
[49]
  GI50: 1.64 µM
  TGI: 3.53 µM
[50]
  GI50: 2.1 µM
  TGI: 4.68 µM
[51]
  GI50: 1.16 µM
  TGI: 2.61 µM
[52]
  GI50: 2.21 µM
  TGI: 5.33 µM
[53]
  GI50: 1.44 µM
  TGI: 2.75 µM
[54]
  GI50: 1.68 µM
  TGI: 4.15 µM
